Laboratory results: patent US20260256741A1, “ANTICANCER MALEIMIDE DERIVATIVES FOR USE WITH IMMUNE CHECKPOINT BLOCKADE” (BROWN UNIVERSITY, priority 2022, published 2026)

Assays:
[1] = system: tumor cells (HCT-116, HT-29); experiment: Cytokine profiling of tumor cell culture supernatant (Luminex 200); assay type: cell-based, human; details: 48 hours
Procedure: Cells were plated at 3.5×10^4 cells in a 48-well plate (Thermo Fisher Scientific, Waltham, MA, USA) in complete medium and incubated at 37° C. with 5% CO2. At 24 hours after plating, almost all the tumor cells were adherent to the bottom of the flask and the complete medium was replaced with the drug-containing medium. Subsequently, the culture supernatants were collected after 48 hours of incubation and were frozen at −80° C. until the measurement of cytokines was performed. On the day of analysis, samples were thawed and centrifuged to remove cellular debris.
Human cell line culture supernatants were analyzed using an R&D systems Human Premixed Multi-Analyte Kit (R&D Systems, Inc., Minneapolis, MN, USA) and a Luminex 200 (RRID: SCR_018025) Instrument (LX200-XPON-RUO, Luminex Corporation, Austin, TX, USA) according to the manufacturer's instructions. Sample levels of TNF-α, 4-1BB/TNFRSF9/CD137, IL-8/CXCL8, Ferritin, IFN-β, IL-10, CCL2/JE/MCP-1, VEGF, CXCL13/BLC/BCA-1, IFN-γ, CCL20/MIP-3 α, CCL3/MIP-1 α, CCL22/MDC, CCL4/MIP-1 β, Fas Ligand/TNFSF6, IL-17/IL-17A, IL-2, BAFF/BLyS/TNFSF13B, GM-CSF, CXCL5/ENA-78, TRANCE/TNFSF11/RANK L, CXCL9/MIG, G-CSF, IFN-γ R1/CD119, VEGFR3/Flt-4, C-Reactive Protein/CRP, CXCL11/I-TAC, IL-21, CXCL14/BRAK, IL-6, Fas/TNFRSF6/CD95, TRAIL R3/TNFRSF10C, IL-4, CCL5/RANTES, PD-L1/B7-H1, CCL7/MCP-3/MARC, Chitinase 3-like 1, CXCL10/IP-10/CRG-2, IL-1 β/IL-1F2, IL-7, Prolactin, CCL8/MCP-2, TRAIL R2/TNFRSF10B, M-CSF, IL-15, Granzyme B, IFN-α, TREM-1, IL-12/IL-23 p40, TRAIL/TNFSF10, CCL11/Eotaxin, and IL-18/IL-1F4. Quantitative analysis with 6 standards and a minimum of 50 counts per bead region was used with the Luminex to generate analyte values reported as picograms/milliliter (pg/mL). Sample concentrations less than the lower limit of detection for each particular analyte were recoded as the lower limit value divided by ten. Sample concentrations above the upper limit of detection for a particular analyte were recoded as the upper limit of detection.

HT-29 CRC cells = experiment: Western blot analysis of HT-29 CRC cells; assay type: cell-based, human
Procedure: Recombinant Human TNF-α (Cat #300-01A, PeproTech, Rocky Hill, NJ, USA) and Recombinant Human IFN-γ (Cat #300-02, Peprotech, Rocky Hill, NJ, USA) were purchased for use in western blot analysis while rhTRAIL was generated in-house. Kim et al., J Biol Chem., 279(38):40044-52 (2004).
Cells were plated in a 6-well plate and incubated overnight before the spent media was replaced with drugged media. Drug treatment lasted for indicated durations. Protein was extracted using radioimmunoprecipitation (RIPA) assay buffer (Cat #R0278, Sigma-Aldrich, St. Louis, MO) containing cOmplete™, Mini, EDTA-free Protease Inhibitor Cocktail (Cat #4693159001, Roche, Basel, Switzerland) from sub-confluent cells. Denaturing sample buffer was added, samples were boiled at 95 degrees for 10 minutes, and an equal amount of protein lysate was electrophoresed through NuPAGE™ 4 to 12%, Bis-Tris, 1.5 mm, Mini Protein Gels (Invitrogen, Waltham, MA) then transferred to PVDF membranes. The PVDF membrane was blocked with 5% non-fat milk (Sigma-Aldrich, St. Louis, MO) in 1×TTBS. Primary antibodies were incubated with the transferred PVDF membrane in blocking buffer at 4° C. overnight. Secondary antibodies used included Goat anti-Rabbit IgG (H+L) Secondary Antibody, HRP (Cat #31460, Invitrogen, Waltham, MA), and Goat anti-Mouse IgG (H+L) Secondary Antibody, HRP (Cat #31430, Invitrogen, Waltham, MA). Signal was detected using Pierce™ ECL Western Blotting Substrate (Cat #32106, Thermo Scientific, Waltham, MA, USA) and a Syngene Imaging System (RRID: SCR_015770).

[2] = especially at later timepoints (48, 72 hr)

In the case of `Cn1cc(C2=C(c3coc4ccc(F)cc34)C(=O)NC2=O)c2cc3c(cc21)OCO3` [elraglusib, 3-(5-fluorobenzofuran-3-yl)-4-(5-methyl-5H-[1,3]dioxolo[4,5-f]indol-7-yl)-1H-pyrrole-2,5-dione], the CCL5/RANTES secretion ([1]; 1 μM or 5 μM) is reported as “downregulated post-treatment”, the DcR3 secretion ([1]; 1 μM or 5 μM) is reported as “downregulated post-treatment” and the Fas secretion ([1]; 1 μM or 5 μM) is reported as “downregulated post-treatment”. For the same molecule, the “soluble PD-L1 (sPD-L1) secretion” value ([1]; 1 μM or 5 μM) was “downregulated post-treatment”, the GDF-15 secretion ([1]; both cell lines, 1 μM and 5 μM) was “decreased secretion” and the GM-CSF secretion ([1]; both cell lines, 1 μM and 5 μM) was “decreased secretion”. The VEGF secretion ([1]; both cell lines, 1 μM and 5 μM) was “decreased secretion”, the “NF-κB p65 expression” value (HT-29 CRC cells; as the 0-72 hour time-course progressed) was “decreased expression” and the PD-L1 expression (HT-29 CRC cells; as the treatment duration increased (0-72 hours)) was “increases in PD-L1 expression”. For the same molecule, the Bcl-2 protein expression (HT-29 CRC cells; [2]) was “decreases in protein expression”, the Survivin protein expression (HT-29 CRC cells; [2]) was “decreases in protein expression” and the “cleaved PARP (cPARP)” value (HT-29 CRC cells; low dose as in co-culture assays, until the 48-hour timepoint of 72-hour timecourse) was “little to no cleaved PARP”.
